Results on 17 compounds are retold here after patent US10676468B2, “N-(3-heteroarylaryl)-4-arylarylcarboxamides and analogs as hedgehog pathway inhibitors and use thereof” (IMPACT Therapeutics, Inc., priority 2012, dated 2020).

Test [1] relates to Hedgehog Signaling Pathway. As to the kind of experiment: SAG-induced differentiation of C3H10T1/2 cells into osteoblastic cells, intracellular alkaline phosphatase activity. The note with it: Mus musculus, C3H 10T1/2, 120 h, 1 μM SAG, 5 days, alkaline phosphatase activity (OD405), read-out: IC50 values of compounds that inhibit Hh pathway. The format is cell-based, mouse. From the text: The Application of SAG to Induce Pluripotent Mesenchymal Mouse Embryonic Cell C3H/10T1/2 to Differentiate into Osteoblastic Cells for the Determination of the Inhibitory Activity of N-(3-(1H-benzo[d]imidazol-2-yl)-4-chlorophenyl)-2-methyl-4-((2S,6R)-2,6-dimethylmorpholino)benzamide and Analogs on Hedgehog Signaling Pathway
The intracellular alkaline phosphatase activity is a reliable indication of the differentiation process. Therefore this enzymatic activity can be used to monitor the activity of hedgehog pathway inhibitors.
The C3H10T1/2 cells were grown in DMEM medium supplemented with 10% fetal bovine serum (FBS, Hyclone) at 37° C. with 5% CO2. 10000 cells were sown to each well of a 96-well microplate a day before the experiment and grown overnight. At the day of experiment, the inducing medium and inhibitor solutions were prepared as follows: the reference compound and testing compounds were serially diluted 1 to 3 and 1 to 10 in DMSO to seven concentrations with the eighth concentration being DMSO. A 10-fold dilution was prepared by mixing 10 μL of the DMSO dilution with 90 μL of fresh growing medium. […] Pre-sown cells were taken out from incubator and the medium was removed. To each well, 180 μL inducing medium was added and followed immediately with 20 μL of testing or reference compound dilutions. The testing compound concentrations are between 10 μM and 1 nM. The cells were then return to CO2 incubator to grow additional 5 days at 37° C.
(§1) After incubating for 5 days, the cells were taken out and intracellular alkaline phosphatase activity was tested. The alkaline phosphatase activity was measured as follows:
1) Preparation of Substrate Solution:
(§2) Solution A: A 0.5 mM MgCl2 (Sigma Prod. No. M-0250) solution was prepared.
(§3) After the pH value was adjusted to 9.8 with 5 M HCl at 37° C., the total volume was adjusted to 100 mL.
(§4) After it is completely dissolved the total volume was adjusted to 10 mL with the final concentration being 1 mM.
Substrate reaction medium: To 10 mL of solution B, 250 μL of solution A and 200 μL of solution C were added, and mixed well.
2) the Measurement of Intracellular Alkaline Phosphatase Activity:
(§5) After taking out the cells from the incubator, the cell culture medium was removed and cells were washed twice with PBS. 20 μL of lysis solution (0.2% Triton solution) was added to each well. After being shaken for 30 min at room temperature, each well of cells received 80 μL of substrate reaction medium. The microplate was placed immediately into a VariSkan Flashplate reader and absorbance at OD405 was read as background reading. The plate was replaced back to cell culture incubator at 37° C. for additional 30 min and the absorbance was read again using VariSkan Flash plate reader at OD405.
The data were analyzed by subtracting the background reading from the reading at 30 min, and the obtained numbers were plotted and analyzed with Prism 5 software (GraphPad). The phosphatase activity (calculated OD405) was plotted against the log concentration of testing compound, and the obtained plot was fitted with non-linear curve fitting equation to calculate IC50 values. The curve fitting equation is Y=Bottom+(Top−Bottom)/(1+10^((X−Log IC50))). X is the logarithm of concentration. Y is the measure of alkaline phosphatase activity (OD405).
(§6) The calculated IC50 value is a measurement of the inhibitory activity of compound to Hh pathway.

Test [2] has as its system Hedgehog Signaling Pathway. In words: SHH-induced differentiation of C3H10T1/2 cells into osteoblastic cells, intracellular alkaline phosphatase activity. The following applies: Mus musculus, C3H 10T1/2, 120 h, 10 nM SHH-N, 5 days, alkaline phosphatase activity (OD405), read-out: IC50 values of compounds that inhibit Hh pathway. The test is classed as cell-based, mouse. Here is the method:
The Application of SHH to Induce Pluripotent Mesenchymal Mouse Embryonic Cell C3H10T1/2 to Differentiate into Osteoblastic Cells for the Determination of the Inhibitory Activity of N-(3-(1H-benzo[d]imidazol-2-yl)-4-chlorophenyl)-2-methyl-4-((2S,6R)-2,6-dimethylmorpholino)benzamide and Analogs on Hedgehog Signaling Pathway
The C3H10T1/2 cells were grown in DMEM medium supplemented with 10% fetal bovine serum (FBS, Hyclone) at 37° C. with 5% CO2. 10000 cells were sown to each well of a 96-well microplate a day before the experiment and grown overnight. […] The reference compound and testing compounds were serially diluted 1 to 3 and 1 to 10 in DMSO to seven concentrations with the eighth concentration being DMSO. A 10-fold dilution was prepared by mixing 10 μL of the DMSO dilutions with 90 μL of fresh growing medium. Pre-sown cells were taken out from incubator and the medium was removed. To each well, 180 μL of inducing medium containing 10 nM of SHH-N was added and followed immediately with 20 μL of 10× testing or reference compound dilutions. The testing compound concentrations are between 10 μM and 10 nM. The cells were then returned to CO2 incubator to grow additional 5 days at 37° C.
as §1
3) Preparation of Substrate Solution:
as §2, §3, §4
Substrate reaction medium: to 10 mL of solution B, 250 μL of solution A and 200 μL of solution C were added, and mixed well.
4) The Measurement of Intracellular Alkaline Phosphatase Activity:
as §5
The data were analyzed by subtracting the background reading from the reading at 30 min, and the obtained numbers were plotted and analyzed with Prism 5 software (GraphPad). The phosphatase activity (calculated OD405) was plotted against the log concentration of testing compound, and the obtained plot was fitted with non-linear curve fitting equation to calculate IC50 values. The curve fitting equation is Y=Bottom+(Top−Bottom)/(1+10^(X−Log IC50)). X is the logarithm of concentration. Y is the measure of alkaline phosphatase activity (OD405).
as §6

Molecules are shown by their SMILES. A value given as a limit tells only on which side of the number the result lay.

Take `O=C(Nc1ccc(Cl)c(-c2nc3ccccc3[nH]2)c1)c1ccc(-c2ccc(C(F)(F)F)cc2)cc1[N+](=O)[O-]` [Example 19, N-(3-(1H-benzo[d]imidazol-2-yl)-4-chlorophenyl)-3-nitro-4′-(trifluoromethyl)biphenyl-4-carboxamide]: the half-inhibitory concentration (IC50) in test [1] came out at 161 nM; in test [2], 23 nM.
In the same order, the values of `Cc1cc(-c2ccc(C(F)(F)F)cc2)ccc1C(=O)Nc1ccc(Cl)c(-c2ncc(-c3cccnc3)[nH]2)c1` [Example 51, N-(3-(5-(pyridin-3-yl)-1H-imidazol-2-yl)-4-chlorophenyl)-3-methyl-4′-(trifluoromethyl)biphenyl-4-carboxamide] are over 10000 nM and 77 nM.
In the same order, the values of `Cc1cc(N2CCN(C)CC2)ccc1C(=O)Nc1ccc(Cl)c(-c2nc3ccccc3[nH]2)c1` [Example 92, N-(3-(1H-benzo[d]imidazol-2-yl)-4-chlorophenyl)-2-methyl-4-(4-methylpiperazin-1-yl)benzamide] are 312 nM and 45 nM.
In the same order, the values of `C[C@@H]1CN(c2cc(Cl)c(C(=O)Nc3ccc(Cl)c(-c4nc5ccccc5[nH]4)c3)cn2)C[C@H](C)O1` [Example 36, N-(3-(1H-benzo[d]imidazol-2-yl)-4-chlorophenyl)-4-chloro-6-((2S,6R)-2,6-dimethylmorpholino)nicotinamide] are 362 nM and 95 nM.
Turning to `Cc1cc(N2CCCCC2)ccc1C(=O)Nc1ccc(Cl)c(-c2nc3ccccc3[nH]2)c1` [Example 31, N-(3-(1H-benzo[d]imidazol-2-yl)-4-chlorophenyl)-2-methyl-4-(piperidin-1-yl)benzamide], the IC50 in test [1] stood at 229 nM; in test [2], 44 nM.
In the same order, the values of `Cc1cc(-c2ccsc2)ccc1C(=O)Nc1ccc(Cl)c(-c2nc3ccccc3[nH]2)c1` [Example 42, N-(3-(1H-benzo[d]imidazol-2-yl)-4-chlorophenyl)-2-methyl-4-(thiophen-3-yl)benzamide] are 230 nM and 337 nM.
For `Cc1c(NC(=O)c2ccc(N3C[C@@H](C)O[C@@H](C)C3)nc2)cccc1-c1nc2ccccc2[nH]1` [Example 65, N-(3-(1H-benzo[d]imidazol-2-yl)-2-methylphenyl)-6-((2S,6R)-2,6-dimethylmorpholino)nicotinamide] the same measures were 522 nM and 501 nM.
For `Cc1cc(-c2ccc(C(F)(F)F)cc2)ccc1C(=O)Nc1ccc(Cl)c(-c2nnc3ccccn23)c1` [Example 52, N-(3-([1,2,4]triazolo[4,3-a]pyridin-3-yl)-4-chlorophenyl)-3-methyl-4′-(trifluoromethyl)biphenyl-4-carboxamide] the same measures were 740 nM and 465 nM.
With `Cc1cc(-c2ccccc2)ccc1C(=O)Nc1ccc(Cl)c(-c2nc3ccccc3[nH]2)c1` [Example 2, N-(3-(1H-benzo[d]imidazol-2-yl)-4-chlorophenyl)-3-methylbiphenyl-4-carboxamide], the 50% inhibitory concentration (IC50) in test [1] is 74 nM; in test [2], 14 nM.
For `COc1ccc(-c2ccc(C(=O)Nc3ccc(Cl)c(-c4nc5ccccc5[nH]4)c3)c(C)c2)cc1` [Example 3, N-(3-(1H-benzo[d]imidazol-2-yl)-4-chlorophenyl)-3-methyl-4′-methoxybiphenyl-4-carboxamide] the same measures were 111 nM and 39 nM.
Consider `Cc1cc(-c2ccc(N)cc2)ccc1C(=O)Nc1ccc(Cl)c(-c2nc3ccccc3[nH]2)c1` [Example 24, N-(3-(1H-benzo[d]imidazol-2-yl)-4-chlorophenyl)-3-methyl-4′-aminobiphenyl-4-carboxamide], for which the values for the concentration for half-maximal inhibition (IC50) in test [1] and in test [2] were 255 nM and 62 nM, respectively.
For `O=C(Nc1ccc(Cl)c(-c2nc3ccccc3[nH]2)c1)c1ccc(-c2ccc(F)cc2)cc1` [Example 12, N-(3-(1H-benzo[d]imidazol-2-yl)-4-chlorophenyl)-4′-fluorobiphenyl-4-carboxamide], the IC50 in test [1] stood at 153 nM; in test [2], 18 nM.
Consider `O=C(Nc1ccc(Cl)c(-c2nc3ccccc3[nH]2)c1)C1CCC(c2ccccc2)CC1` (stereo not shown) [Example 44, N-(3-(1H-benzo[d]imidazol-2-yl)-4-chlorophenyl)-4-phenylcyclohexanecarboxamide], for which the concentration for half-maximal inhibition (IC50) was found to be 139 nM in test [1] and 18 nM in test [2].
Turning to `C[C@@H]1CN(c2ccc(C(=O)Nc3ccc(Cl)c(-c4nc5ccccc5[nH]4)c3)c(N)c2)C[C@H](C)O1` [Example 33, N-(3-(1H-benzo[d]imidazol-2-yl)-4-chlorophenyl)-2-amino-4-((2S,6R)-2,6-dimethylmorpholino)benzamide], the IC50 in test [1] amounted to 83 nM; in test [2], 22 nM.
In the same order, the values of `Cc1cc(-c2cccc(F)c2)ccc1C(=O)Nc1ccc(Cl)c(-c2nc3ccccc3[nH]2)c1` [Example 10, N-(3-(1H-benzo[d]imidazol-2-yl)-4-chlorophenyl)-3-methyl-3′-fluorobiphenyl-4-carboxamide] are 74 nM and 6.3 nM.
Regarding `Cc1cc(-c2ccc(C(F)(F)F)cc2)ccc1C(=O)Nc1cccc(-c2cn3cccnc3n2)c1` [Example 55, N-(3-(imidazo[1,2-a]pyrimidin-2-yl)phenyl)-3-methyl-4′-(trifluoromethyl)biphenyl-4-carboxamide], the half-inhibitory concentration (IC50) in test [1] and in test [2] was over 10000 nM each time.
Regarding `Cc1cc(-c2ccc(C(F)(F)F)cc2)ccc1C(=O)Nc1cc(-c2nc3ccccc3[nH]2)ccn1` [Example 61, N-(4-(1H-benzo[d]imidazol-2-yl)pyridin-2-yl)-3-methyl-4′-(trifluoromethyl)biphenyl-4-carboxamide], the IC50 in test [1] and in test [2] was over 10000 nM throughout.

As a reminder, the IC50 is the concentration at which inhibition is half-maximal.
